Test results taken from patent US9169477B2, “Compositions and methods for immunization against bacteria expressing a carbapenemase” (priority 2012, dated 2015).

Tests used:
[1] = test system: NDM-1-expressing K. pneumoniae (ATCC BAA-2146); test: Imipenem MIC of the test strain; type: cell-based; details: Klebsiella pneumoniae, ATCCBAA2146
Protocol: (§1) To determine the in vitro effects of the antibody generated in response to rNDM1 and rKPC vaccination, bacteria were incubated overnight at 37° C. in 10% serum plus Mueller-Hinton broth, per CLSI standards. […] Thus, the immune serum was directly cidal for NDM-1 expressing K. pneumoniae.

[2] = test system: KPC-expressing Klebsiella pneumoniae strain KPC-KP1; test: Imipenem MIC of the test strain; type: cell-based
Protocol: as §1

[3] = molecular target: T1, NDM-1 (Klebsiella pneumoniae, UniProt C7C422); test: IgG antibody titers in serum of mice vaccinated with rNDM-1; type: in vivo; details: subcutaneous with Al(OH)3 adjuvant, booster at three weeks, serum two weeks after booster, vs control mice
T1 construct: made in house
Source text: A vaccination program targeting KPC- and NDM-1 was developed. The KPC gene was cloned from a pan-resistant (to all antibiotics, including colistin) clinical lung isolate of K. pneumoniae acquired at a local hospital (KPC-KP1) and the NDM-1 gene was cloned from a clinical K. pneumoniae isolate (ATCC BAA-2146). Recombinant KPC (rKPC) and recombinant NDM-1 (rNDM-1) proteins were expressed, purified, and used for immunization of mice. The immunization of the mice consisted of subcutaneously injecting either rKPC or rNDM-1 with Al(OH)3 adjuvant. A booster immunization for each mouse was administered at three weeks post initial immunization. Two weeks after the booster, serum from immune and control mice were harvested. […] Thus, high titers of immune polyclonal antibodies have been generated against KPC and NDM-1.

## C[C@@H](O)[C@H]1C(=O)N2C(C(=O)O)=C(SCCN=CN)C[C@H]12 [imipenem]
[1]
  MIC: > 32 µg/mL
[2]
  MIC: > 32 µg/mL

B1: rNDM-1: Recombinant NDM-1 protein cloned from K. pneumoniae ATCC BAA-2146, injected with Al(OH)3 adjuvant for immunization (protein, UniProt C7C422 29-270, looked up)
Metallo-beta-lactamase type 2: GEIRPTIGQQMETGDQRFGDLVFRQLAPNVWQHTSYLDMPGFGAVASNGLIVRDGGRVLVVDTAWTDDQTAQILNWIKQEINLPVALAVVTHAHQDKMGGMDALHAAGIATYANALSNQLAPQEGMVAAQHSLTFAANGWVEPATAPNFGPLKVFYPGPGHTSDNITVGIDGTDIAFGGCLIKDSKAKSLGNLGDADTEHYAASARAFGAAFPKASMIVMSHSAPDSRAAITHTARMADKLR
[3]; listed as NDM-1
  anti-NDM-1 IgG titers: marked increase
[3]; listed as rNDM1
  anti-NDM-1 IgG titers: high titers
